Assay results taken from patent US4025630A, “Anesthesia methods using benzopyrans and esters thereof as pre-anesthesia medication” (Abbott Laboratories, priority 1974, dated 1977).
Structures can show the parent of a compound that is named as a salt.

Tests used:
[1] = Solubility in water of the product; conditions: powder
[2] = Determination of the Anesthetic ED50 and the LD50 of Pentothal; type: in vivo, female Swiss-Webster mice; conditions: mouse, in vivo; intravenous, mice, observed one week; read-out: LD50 (95% C.L.)
Experimental: (§1) An intravenous potency/lethality ratio for Pentothal was established in mice as follows
(§2) Determination of the Anesthetic ED50 and the LD50 of Pentothal
(§3) Groups of 10 female Swiss-Webster (A. R. Schmidt, Madison, Wisconsin) mice weighing between 16-25 grams were used for all studies. Intravenous injections were made into the tail veins. The drugs were prepared daily in Sterile Water (Abbott List No. 1590). […] LD50 's ED50 's, and their associated conficence limits were calculated by the method of Litchfield and Wilcoxon (1949).

mice [3] = test: as above; type: in vivo, female Swiss-Webster mice
Experimental: as §1, §2, §3

mice [4] = test: Activity of benzopyrans as adjuvants to halothane anesthesia (Carson-Domino method); type: in vivo; set-up: key: +: statistically significant increase; -: statistically significant decrease; NE: no effect; (): large but non-statistically significant change
Text: (§4) A modification of the method of Carson and Domino (Anesthesiology, 23:187-192, 1962) was used.
(§5) Groups of 10 female Swiss-Webster (A. R. Schmidt, Madison, Wisconsin) mice weighing between 16-24 grams were pre-treated with various doses or at various times with drug either oral or by intravenous injection of the tail veins. The mice were placed into 2 liter beakers (5 animals per beaker). The tops of the beakers were covered with Parafilm to which a gauze sponge had been attached. 0.1 cc of Penthrane or halothrane was injected through the Parafilm into the sponge at 5 minute intervals. […] These parameters were measured by the use of a stop watch. Statistical analysis (one-way analysis of variance) was done on the computer.
A number of benzopyran derivatives were screened in mice as adjuvants to the anesthetic actions of halothane. The Carson-Domino method (Anesthesiology 23:187, 1962) was used to measure anesthetic induction times and duration of anesthesia as evidenced by loss of righting reflex, as well as changes in the lethality of halothane.
Screening doses of 5 mg./kg. intravenously or 20 mg./kg. orally were used.

mice [5] = test: Interaction of Benzopyranopyridines with Fluothane (halothane) (modified Carson and Domino method); type: in vivo, female Swiss-Webster mice; conditions: 1 to 5 mg./kg. 15 minutes prior to halothane vapors
Text: as §4, §5

mice [6] = test: Interaction of Benzopyranopyridines with Pentothal (loss of righting reflex, sleep); type: in vivo, female Swiss-Webster mice
Experimental: as §3
Interaction of Benzopyranopyridines with Pentothal
1. Animals pretreated with SP-106, 1 mg./kg. intravenously 0-30 minutes prior to Pentothal, 10 mg./kg. […] Longer pretreatment times (60 to 120 minutes) had no effect.

mice [7] = test: Interaction of Benzopyranopyridines with Penthrane (modified Carson and Domino method); type: in vivo, female Swiss-Webster mice; conditions: 1 to 5 mg./kg. 15 minutes prior to Penthrane vapors
Text: as §4, §5

[8] = 5 mg/kg i.v., pretreatment time 15 minutes
[9] = 20 mg/kg p.o., pretreatment time 1 hr
[10] = 20 mg/kg p.o., pretreatment time 2 hr
[11] = 20 mg/kg p.o., pretreatment time 3 hr
[12] = 20 mg/kg p.o., pretreatment time 4 hr

CC1CCC2=C(C1)c1c(OC(=O)CCCN3CCCCC3)cc(C(C)CCCc3ccc(F)cc3)cc1OC2(C)C (centres unmarked) [Example 71]
solubility in water [1]: soluble in water

CCCC(C)C1(CC)C(=O)NC(=S)NC1=O (centres unmarked) [Pentothal, sodium thiopental]
LD50 at 168 h [2]: 76 mg/kg | ED50 (mice [3]; Mus musculus, intravenous, mice, loss of righting reflex, read-out: Anesthetic ED50 (95% C.L.)): 20 mg/kg | pH (mice [3]; Remarks: irritating (pH 11)): 11 | Remarks: duration (mice [3]; intravenous, mice): short duration | Remarks: irritation (mice [3]; intravenous, mice): irritating | Remarks: onset (mice [3]; intravenous, mice): Immediate onset | Therapeutic Index (mice [3]; intravenous, mice): ~ 4

C#CCN1CCC2=C(C1)c1c(OC(=O)CCCN3CCOCC3)cc(C(C)C(C)CCCCC)cc1OC2(C)C.Cl (centres unmarked) [SP-112, 5,5-Dimethyl-10-[4-(morpholino)butyryloxy]-8-(3-methyl-2-octyl)-2-(2-propynyl)-1,2,3,4-tetrahydro-5H-[1]-benzopyrano [3,4-d] pyridine hydrochloride]
Duration (mice [4]; [8]): + | Lethality (mice [4]; [8]): NE | Onset (mice [4]; [8]): -

C#CCN1CCC2=C(C1)c1c(OC(=O)CCCN3CCCCC3)cc(C(C)CCCc3ccc(F)cc3)cc1OC2(C)C (centres unmarked) [SPA-109]
Duration (mice [4]; [8]): + | Lethality (mice [4]; [8]): NE | Onset (mice [4]; [8]): -

C#CCN1CCC2=C(C1)c1c(OC(=O)CCCN3CCCCC3)cc(C(C)C(C)CCCCC)cc1OC2(C)C.Cl (centres unmarked) [SP-106, 5,5-Dimethyl-8-(3-methyl-2-octyl)-10-[4-(piperidino)butyryloxy]-2-(2-propynyl)-1,2,3,4-tetrahydro-5H-[1]benzopyrano[3,4-d]pyridine hydrochloride]
Onset (mice [5]): reduction of onset | duration of anesthesia (mice [5]): increased the duration of anesthesia | time to death (mice [5]): increased | peak effect (mice [6]; 1 mg./kg. intravenously 0-30 minutes prior to Pentothal 10 mg./kg.): 5 min | anesthesia (loss of righting reflex) (mice [6]; 1 mg./kg. intravenously 0-30 minutes prior to Pentothal 10 mg./kg. (non-anesthetic dose)): produced anesthesia | sleep duration (mice [6]; 1 and 5 mg./kg. intravenously 15 minutes prior to anesthetic dose (30 mg./kg.) of Pentothal): significantly lengthened the sleep | effect at longer pretreatment times (mice [6]; 60 to 120 minutes pretreatment, 1 mg./kg. intravenously, Pentothal 10 mg./kg.): had no effect | Duration (mice [4]; [8]): + | Lethality (mice [4]; [8]): - | Onset (mice [4]; [8]): - | duration of anesthesia (mice [7]): significantly lengthened the duration of anesthesia | onset to sleep (mice [7]): signficantly shortened onset to sleep | time to death (mice [7]): had no effect or lengthened time to death

CCCCCC(C)C(C)c1cc(OC(=O)CCCN2CCCCC2)c2c(c1)OC(C)(C)C1=C2CCCS1 (centres unmarked) [SP-117]
Lethality (mice [4]; [8]): NE | Onset (mice [4]; [8]): +

C#CCN1CCC2=C(C1)c1c(OC(=O)C(C)CCN3CCCCC3C)cc(C(C)C(C)CCCCC)cc1OC2(C)C (centres unmarked) [SP-204]
Duration (mice [4]; [8]): + | Lethality (mice [4]; [8]): - | Onset (mice [4]; [8]): -

C#CCN1CCC2=C(C1)c1c(O)cc(C(C)C(C)CCCCC)cc1OC2(C)C (centres unmarked) [SP-1]
Duration (mice [4]; [9]): + | Lethality (mice [4]; [9]): - | Onset (mice [4]; [9]): + | Duration (mice [4]; [10]): + | Lethality (mice [4]; [10]): NE | Onset (mice [4]; [10]): - | Duration (mice [4]; [11]): + | Lethality (mice [4]; [11]): NE | Onset (mice [4]; [11]): - | Duration (mice [4]; [12]): + | Lethality (mice [4]; [12]): NE | Onset (mice [4]; [12]): -

CCCCCC(C)C(C)c1cc(OC(=O)CCCN2CCCCC2)c2c(c1)OC(C)(C)C1=C2CCC1 (centres unmarked) [SP-102]
Duration (mice [4]; [8]): + | Lethality (mice [4]; [8]): NE | Onset (mice [4]; [8]): +

CCCCCc1cc(OC(=O)CCCN2CCOCC2)c2c(c1)OC(C)(C)C1CCC(C)=CC21 (centres unmarked) [SP-111]
Duration (mice [4]; [8]): + | Lethality (mice [4]; [8]): NE | Onset (mice [4]; [8]): -

C#CCN1CCC2=C(C1)c1c(OC(=O)CCCN3CCCCC3C)cc(C(C)C(C)CCCCC)cc1OC2(C)C (centres unmarked) [SP-159, 5,5-Dimethyl-10-[4-(2-methylpiperidino)butyryloxy]-8-(3-methyl-2-octyl)-2-(2-propynyl)-1,2,3,4-tetrahydro-5H-[1]benzopyrano [3,4-d] pyridine hydrochloride]
Duration (mice [4]; [8]): + | Lethality (mice [4]; [8]): NE | Onset (mice [4]; [8]): -

C#CCN1CCC2=C(C1)c1c(OC(=O)C(C)CCN3CCCCC3)cc(C(C)C(C)CCCCC)cc1OC2(C)C (centres unmarked) [SP-178, 5,5-Dimethyl-10-[2-methyl-4-(piperidino)butyryloxy]-8-(3-methyl-2-octyl)-2-(2-propynyl)-1,2,3,4-tetrahydro-5H-[1]benzopyrano[3,4-d] pyridine dihydrochloride]
Duration (mice [4]; [8]): + | Lethality (mice [4]; [8]): NE | Onset (mice [4]; [8]): -
